Reference: patent publication US6525001B1, “Substituted pyrimidine and pyridine herbicides” (Mid-American Commercialization Corporation, priority 1997, dated 2003)

Columns and labels:
Type in all cases: in vivo
Parameters in all cases: key: 0 is no effect; 10 is complete control
[1] = system: blackgrass (Alopecurus myosuroides); assay: Test B pre-/postemergence; conditions: for Blackgrass plant response rating: Preemergence
Outline: (§1)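 Response scores run from 0, meaning no effect, to 10, meaning complete control, assigned by eye relative to controls twelve to sixteen days after spraying. Treatment was both preemergence on planted seed and postemergence on plants at the 1- to 4-leaf stage.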

[2] = system: wild oat (Avena fatua); assay: Test B pre-/postemergence
Outline: as §1

[3] = system: bedstraw (Galium aparine); assay: Test B pre-/postemergence; conditions: for Bedstraw plant response rating: Preemergence
Outline: as §1

[4] = system: purple nutsedge (Cyperus rotundus); assay: Test B pre-/postemergence
Outline: as §1

[5] = system: cocklebur (Xanthium strumarium); assay: Test B pre-/postemergence; conditions: for Cocklebur plant response rating: Preemergence
Outline: as §1

[6] = system: wheat (Triticum aestivum); assay: Test B pre-/postemergence
Outline: as §1

[7] = system: momingglory (Ipomoea hederacea); assay: Test B pre-/postemergence
Outline: as §1

[8] = system: crabgrass (Digitaria sanguinalis); assay: Test B pre-/postemergence; conditions: for Crabgrass plant response rating: Preemergence
Outline: as §1

[9] = system: soybean (Glycine max); assay: Test B pre-/postemergence
Outline: as §1

[10] = system: pigweed (Amaranthus retroflexus); assay: Test B pre-/postemergence
Outline: as §1

[11] = system: corn (Zea mays); assay: Test B pre-/postemergence; conditions: for Corn plant response rating: Preemergence
Outline: as §1

[12] = system: velvetleaf (Abutilon theophrasti); assay: Test B pre-/postemergence
Outline: as §1

[13] = system: rape (Brassica napus); assay: Test B pre-/postemergence
Outline: as §1

[14] = system: giant foxtail (Setaria faberii); assay: Test B pre-/postemergence
Outline: as §1

[15] = system: sugar beet (Beta vulgaris); assay: Test B pre-/postemergence
Outline: as §1

[16] = system: broadleaf signalgrass (Brachiaria decumbens); assay: Test B pre-/postemergence; conditions: for B. signalgrass plant response rating: Preemergence
Outline: as §1

[17] = system: smallflower flatsedge (Cyperus difformis); assay: Test B flood test
Outline: (§2)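 Each value is a visual injury score relative to controls, with 10 meaning complete control and 0 no effect. Evaluation took place twelve to sixteen days after the 2-leaf-stage plants were treated and kept in the greenhouse.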

[18] = system: duck salad (Heteranthera limosa); assay: Test B flood test
Outline: as §2

[19] = system: bamyardgrass (Echinochloa crus-galli); assay: Test B flood test
Outline: as §2

[20] = system: rice (Oryza sativa); assay: Test B flood test
Outline: as §2

[21] = Rate 250 g/ha, Postemergence (so in the source)
[22] = Rate 62 g/ha, Postemergence (flood test)
[23] = Rate 125 g/ha, Postemergence section (flood test species)
[24] = Rate 250 g/ha, Postemergence (flood test species)
[25] = Rate 125 g/ha, Postemergence, flood test

COc1cnc(-n2ccc(C(F)(F)F)n2)nc1Cc1cccc(C(F)(F)F)c1 [Compound 45]
0: Plant response rating, Blackgrass ([1]; Rate 62 g/ha, Postemergence) | Blackgrass plant response rating ([1]; Rate 62 g/ha) | Plant response rating, Blackgrass ([1]; Rate 125 g/ha, Postemergence) | Blackgrass plant response rating ([1]; Rate 125 g/ha) | Plant response rating, Blackgrass ([1]; Rate 250 g/ha, Postemergence) | Plant response rating, Blackgrass [1, 21] | Wild oats plant response rating ([2]; Rate 62 g/ha, Postemergence) | Wild oats plant response rating ([2]; Rate 62 g/ha, Preemergence) | Wild oats plant response rating ([2]; Rate 125 g/ha, Postemergence) | Plant response rating, Wild oats ([2]; Rate 125 g/ha, Preemergence) | Plant response rating, Wild oats ([2]; Rate 250 g/ha, Postemergence) | Plant response rating, Wild oats [2, 21] | Plant response rating, Bedstraw ([3]; Rate 62 g/ha, Postemergence) | Bedstraw plant response rating ([3]; Rate 62 g/ha) | Plant response rating, Bedstraw ([3]; Rate 125 g/ha, Postemergence) | Bedstraw plant response rating ([3]; Rate 125 g/ha) | Plant response rating, Bedstraw ([3]; Rate 250 g/ha, Postemergence) | Plant response rating, Bedstraw [3, 21] | Plant response rating, Nutsedge ([4]; Rate 62 g/ha, Postemergence) | Nutsedge plant response rating ([4]; Rate 62 g/ha, Preemergence) | Nutsedge plant response rating ([4]; Rate 125 g/ha, Postemergence) | Nutsedge plant response rating ([4]; Rate 125 g/ha, Preemergence) | Plant response rating, Nutsedge [4, 21] | Plant response rating, Cocklebur ([5]; Rate 62 g/ha, Postemergence) | Cocklebur plant response rating ([5]; Rate 62 g/ha) | Plant response rating, Cocklebur ([5]; Rate 125 g/ha, Postemergence) | Cocklebur plant response rating ([5]; Rate 125 g/ha) | Plant response rating, Cocklebur ([5]; Rate 250 g/ha, Postemergence) | Plant response rating, Cocklebur [5, 21] | Wheat plant response rating ([6]; Rate 62 g/ha, Postemergence) | Wheat plant response rating ([6]; Rate 62 g/ha, Preemergence) | Wheat plant response rating ([6]; Rate 125 g/ha, Postemergence) | Plant response rating, Wheat ([6]; Rate 125 g/ha, Preemergence) | Plant response rating, Wheat ([6]; Rate 250 g/ha, Postemergence) | Plant response rating, Wheat [6, 21] | Plant response rating, Morningglory ([7]; Rate 62 g/ha, Postemergence) | Morningglory plant response rating ([7]; Rate 62 g/ha, Preemergence) | Morningglory plant response rating ([7]; Rate 125 g/ha, Postemergence) | Morningglory plant response rating ([7]; Rate 125 g/ha, Preemergence) | Plant response rating, Morningglory ([7]; Rate 250 g/ha, Postemergence) | Plant response rating, Morningglory [7, 21] | Plant response rating, Crabgrass ([8]; Rate 62 g/ha, Postemergence) | Crabgrass plant response rating ([8]; Rate 62 g/ha) | Plant response rating, Crabgrass ([8]; Rate 125 g/ha, Postemergence) | Crabgrass plant response rating ([8]; Rate 125 g/ha) | Plant response rating, Crabgrass ([8]; Rate 250 g/ha, Postemergence) | Plant response rating, Crabgrass [8, 21] | Plant response rating, Soybean ([9]; Rate 62 g/ha, Postemergence) | Soybean plant response rating ([9]; Rate 62 g/ha, Preemergence) | Soybean plant response rating ([9]; Rate 125 g/ha, Postemergence) | Plant response rating, Soybean ([9]; Rate 125 g/ha, Preemergence) | Plant response rating, Soybean ([9]; Rate 250 g/ha, Postemergence) | Plant response rating, Soybean [9, 21] | Plant response rating, Redroot pigweed ([10]; Rate 62 g/ha, Postemergence) | Redroot pigweed plant response rating ([10]; Rate 62 g/ha, Preemergence) | Redroot pigweed plant response rating ([10]; Rate 125 g/ha, Postemergence) | Redroot pigweed plant response rating ([10]; Rate 125 g/ha, Preemergence) | Plant response rating, Redroot pigweed ([10]; Rate 250 g/ha, Postemergence) | Plant response rating, Redroot pigweed [10, 21] | Plant response rating, Corn ([11]; Rate 62 g/ha, Postemergence) | Corn plant response rating ([11]; Rate 62 g/ha) | Plant response rating, Corn ([11]; Rate 125 g/ha, Postemergence) | Corn plant response rating ([11]; Rate 125 g/ha) | Plant response rating, Corn ([11]; Rate 250 g/ha, Postemergence) | Plant response rating, Corn [11, 21] | Plant response rating, Velvetleaf ([12]; Rate 62 g/ha, Postemergence) | Velvetleaf plant response rating ([12]; Rate 62 g/ha, Preemergence) | Velvetleaf plant response rating ([12]; Rate 125 g/ha, Postemergence) | Plant response rating, Velvetleaf ([12]; Rate 125 g/ha, Preemergence) | Plant response rating, Velvetleaf ([12]; Rate 250 g/ha, Postemergence) | Plant response rating, Velvetleaf [12, 21] | Plant response rating, Rape ([13]; Rate 62 g/ha, Postemergence) | Rape plant response rating ([13]; Rate 62 g/ha, Preemergence) | Rape plant response rating ([13]; Rate 125 g/ha, Postemergence) | Rape plant response rating ([13]; Rate 125 g/ha, Preemergence) | Plant response rating, Rape ([13]; Rate 250 g/ha, Postemergence) | Plant response rating, Rape [13, 21] | Plant response rating, Giant foxtail ([14]; Rate 62 g/ha, Postemergence) | Giant foxtail plant response rating ([14]; Rate 62 g/ha, Preemergence) | Giant foxtail plant response rating ([14]; Rate 125 g/ha, Postemergence) | Giant foxtail plant response rating ([14]; Rate 125 g/ha, Preemergence) | Plant response rating, Giant foxtail ([14]; Rate 250 g/ha, Postemergence) | Plant response rating, Giant foxtail [14, 21] | Plant response rating, Sugarbeets ([15]; Rate 62 g/ha, Postemergence) | Sugarbeets plant response rating ([15]; Rate 62 g/ha, Preemergence) | Sugarbeets plant response rating ([15]; Rate 125 g/ha, Postemergence) | Plant response rating, Sugarbeets ([15]; Rate 125 g/ha, Preemergence) | Plant response rating, Sugarbeets ([15]; Rate 250 g/ha, Postemergence) | Plant response rating, Sugarbeets [15, 21] | Plant response rating, B. signalgrass ([16]; Rate 62 g/ha, Postemergence) | B. signalgrass plant response rating ([16]; Rate 62 g/ha) | Plant response rating, B. signalgrass ([16]; Rate 125 g/ha, Postemergence) | B. signalgrass plant response rating ([16]; Rate 125 g/ha) | Plant response rating, B. signalgrass ([16]; Rate 250 g/ha, Postemergence) | Plant response rating, B. signalgrass ([16]; Rate 250 g/ha, Postemergence as printed in head r139 (second section for compounds 26-50)) | Plant response rating, S. Flatsedge [17, 22] | S. Flatsedge plant response rating [17, 23] | Plant response rating, S. Flatsedge [17, 24] | Plant response rating, Ducksalad [18, 22] | Plant response rating, Ducksalad [18, 25] | Plant response rating, Ducksalad [18, 24] | Plant response rating, Barnyardgrass [19, 22] | Plant response rating, Barnyardgrass [19, 25] | Plant response rating, Barnyardgrass [19, 24] | Plant response rating, Rice [20, 22] | Rice plant response rating [20, 23] | Plant response rating, Rice [20, 24]
